Where two headings read alike, the source gives them in different places.
What was measured:
[1] = tested on: Hepatitis B virus; details: in words; literature; cited from earlier work
[2] = tested on: human immunodeficiency virus (HIV); details: in words, literature, cited from earlier work
[3] = Cellular toxicity in T-lymphoblastoic cell line (CEM), cell number 3 days post treatment; assay type: cell-based; details: human; CEM cells, 3 days; read-out: Cytotoxicity ID50
Method: (§1) To determine the cellular toxicity of the present compounds, the T-lymphoblastoic cell line (CEM) was used. Cells were subjected to varying concentrations of the drug(s) and cell numbers were determined 3 days post treatment by the method described by Chen, C-H and Cheng, Y-C J. Biol. Chem., 264, 11934 (1989).

[4] = tested on: CEM cells; assay: as above; assay type: cell-based; details: in words
Method: as §1

[5] = tested on: HBV; assay: Anti-HBV effects: viral DNA from secreted particles of the 2.2.15 human hepatoma cell line carrying HBV (Southern analysis); assay type: cell-based, Hepatitis B virus
Method: The biological activity of the present compounds was assessed as described by Doong, S-L, et al., Proc. Natl. Acad. Sci. U.S.A 88, 8495-8499 (1991). The human hepatoma cell line carrying the HBV (designated 2.2.15) kindly provided by Dr. G. Acs was used in the study. Price, et al., Proc. Natl. Acad. Sci. U.S.A. 86, 8541 (1989). Briefly, Six day-old cultures were treating with varying concentrations of the drug in the culture medium (Minimum essential medium with Earl's salts and 10% fetal bovine serum). The drug was left in the culture medium for a period of 3 days after which period the medium was aspirated and fresh medium containing the same concentration(s) of the dry was added. At the end of the subsequent 3 day period the culture medium was harvested. The culture medium was processed for obtaining the virions by the polyethylene glycol precipitation method (Doong, et al., supra). Viral DNA thus recovered from the secreted particles was subjected to Southern analysis. Inhibition of the viral replication was determined by the comparison of the viral DNA from drug-treated versus control cultures not treated with the drug.

[6] = tested on: HIV-1; assay: Anti-HIV effects in T-lymphoblastoid cell line MT-2 infected with HIV-1; assay type: cell-based; details: Human immunodeficiency virus 1, MT2, MT-2 cells, read-out: Anti-HIV ID50
Method: Anti-HIV effects were determined using the T-lymphoblastoid cell line, MT-2 infected with the HIV-1 virus. The inhibition was determined by the method of Larder, B. A., et al., Antimicrob. Agents Chemother., 34, 436 (1990).

[7] = in vitro; details: human, cem cells
[8] = tested on: Hepatitis B viral infections; details: in words; prior therapy; cited from earlier work
[9] = tested on: CEM cells; details: cited from earlier work; for CC50: data from published literature, 4320 min, read-out: Cytotoxicity ID50
[10] = tested on: mitochondrial DNA; details: cited from earlier work; for IC50: data from published literature, read-out: Anti-mitochondrial DNA ID50
[11] = tested on: HBV; details: data from published literature; read-out: Anti-HBV ID50; cited from earlier work
[12] = tested on: HIV-1; details: data from published literature; read-out: Anti-HIV ID50; cited from earlier work

Nc1nc(=O)n([C@@H]2CS[C@H](CO)O2)cc1F (relative stereo) [(±)5-FSddC]
activity against Hepatitis B virus in culture [1]: potent activity

Cc1cn([C@H]2C[C@H](F)[C@@H](CO)O2)c(=O)[nH]c1=O [3'-fluoro-3'-deoxythymidine]
activity against HIV [2]: significant activity

Nc1ccn([C@H]2C=C[C@@H](CO)O2)c(=O)n1 [2',3'-dideoxy-2',3'-didehydrocytidine]
activity against HIV [2]: significant activity

Cc1cn([C@H]2C=C[C@@H](CO)O2)c(=O)[nH]c1=O [Compound D4T, 3'-deoxy-2',3'-didehydrothymidine]
activity against HIV [2]: significant activity

Nc1ncnc2c1ncn2[C@H]1C[C@H](F)[C@@H](CO)O1 [3'-fluoro-2',3'-dideoxyadenosine]
activity against HIV [2]: significant activity

Nc1ccn([C@@H]2CC[C@H](CO)O2)c(=O)n1 [L-ddC, 1-(2,3-dideoxy-beta-L-ribofuranosyl)cytosine]
CC50 at 72 h [3]: 54 ± 20 µM
cellular effects [4]: minimal cellular effects
cellular cytotoxicity as compared to ddC ([4]; compared with ddC): considerably less
IC50 ([5]; Hepatitis B virus, 2.2.15 cells, read-out: Anti-HBV ID50): 10 nM
inhibition of HBV DNA replication ([5]; in words): efficiently inhibited
activity against HBV ([5]; in words, relative activity): several fold higher activity against HBV
IC50 [6]: 8 µM
IC50 [7]: > 100 µM

interferon alpha
success in treatment of hepatitis [8]: limited success

Nc1ccn([C@H]2CC[C@@H](CO)O2)c(=O)n1 [ddC, 2',3'-dideoxycytidine]
activity against HIV [2]: among the most potent inhibitors of HIV
activity against HIV ([2]; listed as DDC): significant activity
CC50 [9]: 10 µM
cytotoxicity compared with L-ddC ([9]; in words, compared with L-ddC): much more cytotoxic than L-ddC
IC50 [10]: 22 nM
effects on host mitochondrial DNA ([10]; in words): significant effects on host mitochonrial DNA
IC50 [11]: 2800 nM
IC50 [12]: 1000 nM

Nc1ncnc2c1ncn2[C@@H]1O[C@H](COP(=O)(O)O)[C@@H](O)[C@@H]1O [ara-AMP]
success in treatment of hepatitis [8]: limited success

Nc1ccn([C@H]2CS[C@@H](CO)O2)c(=O)n1 (stereo in doubt) [(-)S-ddC, (-)-2',3'-Dideoxy-3'-thiacytidine]
CC50 [9]: 50 µM
activity against Hepatitis B virus in culture [1]: potent activity
IC50 [10]: > 50000 nM
IC50 [11]: 10 nM
IC50 [12]: 2000 nM

Nc1nc2c(ncn2COCCO)c(=O)[nH]1 [acyclovir]
success in treatment of hepatitis [8]: little, if any, success

2',3'-dideoxy-2',3'-didehydroguanosine [Carbovir]
activity against HIV [2]: significant activity

Nc1ccn([C@@H]2CS[C@H](CO)O2)c(=O)n1 (relative stereo) [(±) SddC, (+) and (-)-2',3'-Dideoxy-3'-thiacytidine]
activity against Hepatitis B virus in culture [1]: potent inhibitors of Hepatitis B virus

[N-]=[N+]=N[C@H]1C[C@H](n2ccc(=O)[nH]c2=O)O[C@@H]1CO [3'-azido-2',3'-dideoxyuridine]
activity against HIV [2]: significant activity

O=C(O)P(=O)(O)O [foscarnet]
success in treatment of hepatitis [8]: little, if any, success

OC[C@@H]1CC[C@H](n2cnc3c(O)ncnc32)O1 [DDI, 2',3'-dideoxyinosine]
activity against HIV [2]: significant activity

Cc1cn([C@H]2C[C@H](N=[N+]=[N-])[C@@H](CO)O2)c(=O)[nH]c1=O [AZT]
success in treatment of hepatitis [8]: little, if any, success

Nc1ncnc2c1ncn2[C@@H]1O[C@H](CO)[C@@H](O)[C@@H]1O [adenine arabinoside]
success in treatment of hepatitis [8]: limited success
